Laboratory results taken from patent publication US5438052A, “Cephalosporin derivatives” (Hoffmann-La Roche Inc., priority 1991, dated 1995).
≈ marks a conversion by molar mass, not a printed value. Where a name gives a salt, the structure may show the parent alone. Read-outs that look alike come from different tables or passages of the source.

Assays:
C. freundii 902 = assay: Minimum inhibitory concentration in vitro, agar dilution method; format: cell-based; settings: Citrobacter freundii
From the text: (§1) 1. Minimum Inhibitory Concentration in vitro
(§2) The activities ascertained, minimum inhibitory concentration (MIC) in μg/ml, are compiled in Table 1 hereinafter: […]

E. cloacae 908R = assay: as above; format: cell-based; settings: Enterobacter cloacae
From the text: as §1, §2

E. cloacae 908SSi = assay: as above; format: cell-based; settings: Enterobacter cloacae
From the text: as §1, §2

E. cloacae P99 = assay: as above; format: cell-based; settings: Enterobacter cloacae
From the text: as §1, §2

E. coli 25922 [1] = assay: as above; format: cell-based; settings: Escherichia coli
From the text: as §1, §2

K. oxytoca 1082 = assay: as above; format: cell-based; settings: Klebsiella oxytoca
From the text: as §1, §2

K. pneumoniae 418 = assay: as above; format: cell-based; settings: Klebsiella pneumoniae
From the text: as §1, §2

P. aeruginosa 27853 = assay: as above; format: cell-based; settings: Pseudomonas aeruginosa
From the text: as §1, §2

P. aeruginosa 799/61 = assay: as above; format: cell-based; settings: Pseudomonas aeruginosa
From the text: as §1, §2

P. aeruginosa 799/WT = assay: as above; format: cell-based; settings: Pseudomonas aeruginosa
From the text: as §1, §2

P. aeruginosa BA = assay: as above; format: cell-based; settings: Pseudomonas aeruginosa
From the text: as §1, §2

P. aeruginosa MK1184 = assay: as above; format: cell-based; settings: Pseudomonas aeruginosa
From the text: as §1, §2

P. mirabilis 2117 = assay: as above; format: cell-based; settings: Proteus mirabilis
From the text: as §1, §2

P. vulgaris 1028 = assay: as above; format: cell-based; settings: Proteus vulgaris
From the text: as §1, §2

S. aureus 6538 = assay: as above; format: cell-based; settings: Staphylococcus aureus
From the text: as §1, §2

S. marcescens 69438 = assay: as above; format: cell-based; settings: Serratia marcescens
From the text: as §1, §2

S. pneumoniae BA = assay: as above; format: cell-based; settings: Streptococcus pneumoniae
From the text: as §1, §2

S. pyogenes 15 = assay: as above; format: cell-based; settings: Streptococcus pyogenes
From the text: as §1, §2

E. coli 25922 [2] = assay: Experimental systemic septicaemia in the mouse; format: in vivo; settings: 96 h
Protocol: (§3) 2. Experimental systemic septicaemia in the mouse
(§4) An experimental systemic septicaemia was produced in albino mice weighing 16-20 g by intraperitoneally injecting into the experimental animals a sample of a dilute culture of the test organism which had been grown overnight. The sample administered is calculated such that the dosage administered is about 5-100 times greater than the dosage which is required to kill 50% of untreated experimental animals within 48 hours. The bacteria were injected as a suspension in the culture broth. Groups of 5 experimental animals each were used not only for the control, but also for the treatment for each dosage tested. The products in accordance with the invention were administered subcutaneously as a suspension in Tween 80 (2%), whereby the concentrations were chosen such that each experimental animal received 500 μl per administration. The respective concentrations were administered twice, namely 1 and 3 hours after the infection (in the case of P. aeruginosa three times, namely 1, 3 and 5 hours after the infection). The ED50 is that dosage which protects 50% of the experimental animals and was calculated by means of the Probit method on the basis of the survial rate after 4 days following the infection. The ED50 values in mg/kg s.c. (subcutaneous) for representatives of the class of substance in accordance with the invention are given in Table 2 hereinafter.

[3] = tested on: Pseudomonas aeruginosa BA; assay: Experimental systemic septicaemia in the mouse; format: in vivo; settings: sc, 96 h
Protocol: as §3, §4

[4] = C. freundii 902, agar dilution, read-out: MIC
[5] = E. cloacae 908R, agar dilution, read-out: MIC
[6] = E. cloacae 908SSi, agar dilution, read-out: MIC
[7] = E. coli 25922, agar dilution, read-out: MIC
[8] = K. oxytoca 1082, agar dilution, read-out: MIC
[9] = K. pneumoniae 418, agar dilution, read-out: MIC
[10] = P. aeruginosa 27853, agar dilution, read-out: MIC
[11] = P. aeruginosa 799/61, agar dilution, read-out: MIC
[12] = P. aeruginosa 799/WT, agar dilution, read-out: MIC
[13] = P. aeruginosa BA, agar dilution, read-out: MIC
[14] = P. aeruginosa MK1184, agar dilution, read-out: MIC
[15] = P. mirabilis 2117, agar dilution, read-out: MIC
[16] = P. vulgaris 1028, agar dilution, read-out: MIC
[17] = S. aureus 6538, agar dilution, read-out: MIC
[18] = S. marcescens 69438, agar dilution, read-out: MIC
[19] = S. pneumoniae BA, agar dilution, read-out: MIC
[20] = S. pyogenes 15, agar dilution, read-out: MIC
[21] = Escherichia coli, sc, E. coli 25922, albino mice, s.c. 1 and 3 hours after infection, survival after 4 days, read-out: ED50
[22] = P. aeruginosa BA, albino mice, s.c. 1, 3 and 5 hours after infection, survival after 4 days, read-out: ED50

`Cc1cc(SCC2=C(C(=O)[O-])N3C(=O)[C@@H](NC(=O)/C(=N\OCS(=O)(=O)c4ccc(O)c(O)c4)c4csc(N)n4)[C@H]3SC2)n2nc(CNS(=O)(=O)c3ccc(O)c(O)c3)nc2n1.[Na+]` [Example 3, (6R,7R)-7-[(Z)-2-(2-amino-4-thiazolyl)-2-[[[(3,4-dihydroxyphenyl)sulphonyl]methoxy]imino]acetamido]-3-[[[2-[(3,4-dihydroxybenzenesulphonamido)methyl]-5-methyl-s-triazolo[1,5-a]pyrimidin-7-yl]thio]methyl]-8-oxo-5-thia-1-azabicyclo[4.2.0]oct-2-ene-2-carboxylic acid sodium salt (1:1)] gave an MIC (C. freundii 902; 902) of 0.12 µg/mL, an MIC (E. cloacae 908R; 908R) of 1 µg/mL and an MIC (E. cloacae 908SSi; 908SSI) of 8 µg/mL. The MIC (E. cloacae P99) was 0.5 µg/mL, the MIC (E. coli 25922 [1]; 25922) was under 0.1 µg/mL and the MIC (K. oxytoca 1082; 1082) was 0.25 µg/mL. The MIC (K. pneumoniae 418; 418) was under 0.1 µg/mL, the MIC (P. aeruginosa 27853; 27853) was 0.25 µg/mL and the MIC (P. aeruginosa 799/61; 799/61) was under 0.1 µg/mL. For the same molecule, the MIC (P. aeruginosa 799/WT; 799/WT) was 0.12 µg/mL, the MIC (P. aeruginosa BA) was under 0.1 µg/mL and the MIC (P. aeruginosa MK1184; MK1184) was under 0.1 µg/mL. The MIC (P. mirabilis 2117; 2117) was under 0.1 µg/mL, the MIC (P. vulgaris 1028; 1028) was under 0.1 µg/mL and the MIC (S. aureus 6538; 6538) was 32 µg/mL. It also gave an MIC (S. marcescens 69438; 69438) of 0.12 µg/mL, an MIC (S. pneumoniae BA) of 2 µg/mL and an MIC (S. pyogenes 15; 15) of 4 µg/mL. It also gave an ED50 (E. coli 25922 [2]; Escherichia coli, 25922, sc) of 0.1 mg/kg and an ED50 [3] of 0.04 mg/kg.
Work on `Nc1nc(/C(=N/OCS(=O)(=O)c2ccc(O)c(O)c2)C(=O)N[C@@H]2C(=O)N3C(C(=O)O)=C(CS(=O)(=O)c4ccc(O)c(O)c4)CS[C@H]23)cs1` [Example 22, (6R,7R)-7-[(Z)-2-(2-amino-4-thiazolyl)-2-[[(3,4-dihydroxysulphonyl)methoxy]imino]acetamido]-3-[[(3,4-dihydroxyphenyl)sulphonyl]methyl]-8-oxo-5-thia-1-azabicyclo[4.2.0]oct-2-ene-2-carboxylic acid sodium salt] yielded an MIC (C. freundii 902; [4]) of 16 µg/mL, an MIC (E. cloacae 908R; [5]) of 32 µg/mL and an MIC (E. cloacae 908SSi; [6]) of 16 µg/mL. For the same molecule, the MIC (E. cloacae P99) was 32 µg/mL, the MIC (E. coli 25922 [1]; [7]) was 8 µg/mL and the MIC (K. oxytoca 1082; [8]) was 0.5 µg/mL. It also gave an MIC (K. pneumoniae 418; [9]) of 0.5 µg/mL, an MIC (P. aeruginosa 27853; [10]) of 32 µg/mL and an MIC (P. aeruginosa 799/61; [11]) of 0.25 µg/mL. For the same molecule, the MIC (P. aeruginosa 799/WT; [12]) was 16 µg/mL, the MIC (P. aeruginosa BA; [13]) was over 32 µg/mL and the MIC (P. aeruginosa MK1184; [14]) was over 32 µg/mL. For the same molecule, the MIC (P. mirabilis 2117; [15]) was 16 µg/mL, the MIC (P. vulgaris 1028; [16]) was 16 µg/mL and the MIC (S. aureus 6538; [17]) was over 32 µg/mL. It also gave an MIC (S. marcescens 69438; [18]) of 16 µg/mL, an MIC (S. pneumoniae BA; [19]) of 16 µg/mL and an MIC (S. pyogenes 15; [20]) of 16 µg/mL. It also gave an ED50 (E. coli 25922 [2]; [21]) of under 0.05 mg/kg and an ED50 [3, 22] of 1.8 mg/kg.
For `CC(C)(O/N=C(\C(=O)N[C@@H]1C(=O)N2C(C(=O)O)=C(CS(=O)(=O)c3ccc(O)c(O)c3)CS[C@H]12)c1csc(N)n1)C(=O)NO` [Example 21, (6R,7R)-7-[(Z)-2-(2-amino-4-thiazolyl)-2-[[(1-hydroxycarbamoyl)-1-methylethoxy]imino]acetamido]-3-[[(3,4-dihydroxyphenyl)sulphonyl]methyl]-8-oxo-5-thia-1-azabicyclo[4.2.0]oct-2-ene-2-carboxylic acid], the MIC (C. freundii 902; [4]) was 4 µg/mL (≈ 6.09 µM), the MIC (E. cloacae 908R; [5]) was 8 µg/mL (≈ 12.2 µM) and the MIC (E. cloacae 908SSi; [6]) was 8 µg/mL (≈ 12.2 µM). It also gave an MIC (E. cloacae P99) of 16 µg/mL (≈ 24.4 µM), an MIC (E. coli 25922 [1]; [7]) of 1 µg/mL (≈ 1.52 µM) and an MIC (K. oxytoca 1082; [8]) of 1 µg/mL (≈ 1.52 µM). The MIC (K. pneumoniae 418; [9]) was 0.5 µg/mL (≈ 0.761 µM), the MIC (P. aeruginosa 27853; [10]) was 8 µg/mL (≈ 12.2 µM) and the MIC (P. aeruginosa 799/61; [11]) was 0.25 µg/mL (≈ 0.381 µM). For the same molecule, the MIC (P. aeruginosa 799/WT; [12]) was 8 µg/mL (≈ 12.2 µM), the MIC (P. aeruginosa BA; [13]) was 8 µg/mL (≈ 12.2 µM) and the MIC (P. aeruginosa MK1184; [14]) was over 32 µg/mL. For the same molecule, the MIC (P. mirabilis 2117; [15]) was 1 µg/mL (≈ 1.52 µM), the MIC (P. vulgaris 1028; [16]) was 2 µg/mL (≈ 3.05 µM) and the MIC (S. aureus 6538; [17]) was over 32 µg/mL. The MIC (S. marcescens 69438; [18]) was 1 µg/mL (≈ 1.52 µM), the MIC (S. pneumoniae BA; [19]) was 8 µg/mL (≈ 12.2 µM) and the MIC (S. pyogenes 15; [20]) was 16 µg/mL (≈ 24.4 µM). The ED50 (E. coli 25922 [2]; [21]) was under 0.3 mg/kg and the ED50 [3, 22] was 0.39 mg/kg.
